Measurements: US9469615B2, “Quinoxalines and AZA-quinoxalines as CRTH2 receptor modulators” (Merck Sharp & Dohme Corp., priority 2010, dated 2016)

Molecular target: T1, hCRTH2 (Homo sapiens, UniProt Q9Y5Y4)
T1 construct: expressed in transfected cells; host or cells: HEK (human embryonic kidney) cells expressing hCRTH2; membrane preparation
T1 sequence (Q9Y5Y4 1-395): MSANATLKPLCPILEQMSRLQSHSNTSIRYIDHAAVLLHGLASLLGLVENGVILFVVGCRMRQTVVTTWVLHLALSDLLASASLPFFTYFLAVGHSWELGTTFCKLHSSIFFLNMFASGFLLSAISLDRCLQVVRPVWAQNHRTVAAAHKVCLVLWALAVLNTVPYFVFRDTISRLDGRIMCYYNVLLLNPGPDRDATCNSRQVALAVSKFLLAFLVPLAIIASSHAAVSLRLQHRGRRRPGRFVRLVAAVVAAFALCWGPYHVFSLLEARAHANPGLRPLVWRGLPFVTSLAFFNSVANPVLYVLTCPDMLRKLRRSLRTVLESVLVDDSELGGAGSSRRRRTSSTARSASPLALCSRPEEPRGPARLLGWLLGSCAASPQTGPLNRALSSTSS
Assay: Radioligand binding assay ([3H]PGD2 competition, HEK-hCRTH2 membranes)
Conditions: [3H]PGD2 binding, rated A-E (Table A)
Summary of the method: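 HEK-hCRTH2 membranes, 8-20 μg; [3H]PGD2 3.0 nM; 50 mM Tris-HCl pH 7.4/1 mM EDTA/2 mM MnCl2; DMSO 1%; 60 min RT; NSB 10 μM PGD2; filtration, scintillation counting.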

Ki [nM]	SMILES
0.1 to 2	CC(CCc1nc2cc(C(=O)N3CC[C@@H](c4ccccc4)C3)ccc2nc1-c1ccc(C(F)(F)F)cc1)CC(=O)O (stereo partly drawn) [17V, beta-methyl-7-[(3(S)-phenyl-1-pyrrolidinyl)carbonyl]-3-[4-(trifluoromethyl)phenyl]-2-quinoxalinepentanoic acid]
2.1 to 20	CC(CCc1nc2cc(C(=O)N3CCC[C@H](c4ccccc4)C3)ccc2nc1-c1ccc(Cl)cc1)CC(=O)O (stereo partly drawn) [17J, 3-(4-chlorophenyl)-beta-methyl-7-[(3(R)-phenyl-1-piperidinyl)carbonyl]-2-quinoxalinepentanoic acid]
2.1 to 20	O=C(O)CCCCc1nc2cc(C(=O)N[C@@H](c3ccccc3)C(F)(F)F)ccc2nc1-c1ccc(C(F)(F)F)cc1 [compound 149, 3-[4-(trifluoromethyl)phenyl]-7-[[(2,2,2-trifluoro-1(S)-phenylethyl)amino]carbonyl]-2-quinoxalinepentanoic acid]
2.1 to 20	CC(CCc1nc2cc(C(=O)N3CCC[C@@H](c4ccccc4)C3)ccc2nc1-c1ccc(Cl)cc1)CC(=O)O (stereo partly drawn) [17i, 3-(4-chlorophenyl)-beta-methyl-7-[(3(S)-phenyl-1-piperidinyl)carbonyl]-2-quinoxalinepentanoic acid]
0.1 to 2	O=C(O)CCCCc1nc2cc(C(=O)NCc3cccc(Cl)n3)ccc2nc1-c1ccccc1 [15BU, 5-(7-{[(6-chloropyridin-2-yl)methyl]carbamoyl}-3-phenylquinoxalin-2-yl)pentanoic acid]
20.1 to 200	CN(C)C(=O)c1ccc2nc(-c3ccc(F)cc3)c(CCCCC(=O)O)nc2c1 [5Q, 7-[(dimethylamino)carbonyl]-3-(4-fluorophenyl)-2-quinoxalinepentanoic acid]
2.1 to 20	O=C(O)CCCCc1nc2cc(C(=O)N3CCC(c4cnccn4)CC3)ccc2nc1-c1ccccc1 [15BS, 5-{3-phenyl-7-[(4-pyrazin-2-ylpiperidin-1-yl)carbonyl]quinoxalin-2-yl}pentanoic acid]
2.1 to 20	CC(CCCc1nc2cc(C(=O)N3CC[C@H](c4ccccc4)C3)ccc2nc1-c1ccc(C(F)(F)F)cc1)C(=O)O (stereo partly drawn) [18F, alpha-methyl-7-[(3(R)-phenyl-1-pyrrolidinyl)carbonyl]-3-[4-(trifluoromethyl)phenyl]-2-quinoxalinepentanoic acid]
20.1 to 200	O=C(N[C@@H]1CCCc2ccccc21)c1ccc2nc(-c3ccccc3)c(CCCC(F)C(=O)O)nc2c1 (single isomer, unassigned) [38B]
0.1 to 2	O=C(O)CCCCc1nc2cc(C(=O)N3CC(c4ccc(F)cc4)C3)ccc2nc1-c1ccccc1 [compound 250, 7-[[3-(4-fluorophenyl)-1-azetidinyl]carbonyl]-3-phenyl-2-quinoxalinepentanoic acid]
2.1 to 20	COc1ccc(C(C)NC(=O)c2ccc3nc(-c4ccccc4)c(CCCCC(=O)O)nc3c2)cc1 (stereo not drawn) [15AU, 5-(7-{[1-(4-methoxyphenyl)ethyl]carbamoyl}-3-phenyl-quinoxalin-2-yl) pentanoic acid]

Same assay, conditions: [3H]PGD2 competition, Table B

SMILES	Ki [nM]
CC(C)[C@H](NC(=O)c1ccc2nc(-c3ccc(Cl)cc3)c(CCCCC(=O)O)nc2c1)c1ccc(F)cc1 [compound 402, (S)-5-(3-(4-chlorophenyl)-7-((1-(4-fluorophenyl)-2-methylpropyl)carbamoyl)quinoxalin-2-yl) pentanoic acid]	2.1 to 20
O=C(O)CCCCc1nc2cc(C(=O)N3CCN(c4cnccn4)CC3)ccc2nc1-c1ccc(F)cc1 [compound 360, 5-(3-(4-fluorophenyl) 7-(4-(pyrazin-2-yl)piperazine-1-carbonyl)quinoxalin-2-yl)pentanoic acid]	20.1 to 200
C[C@H](NC(=O)c1ccc2nc(-c3ccc(Cl)cc3)c(CCCCC(=O)O)nc2c1)c1ccc(C#N)cc1 [compound 257]	2.1 to 20
CN(C(=O)c1ccc2nc(-c3ccccc3)c(CCCCC(=O)O)nc2c1)[C@@H]1CCCc2cc(Cl)ccc21 [compound 380, (R)-5-(7-((6-chloro-1,2,3,4-tetrahydronaphthalen-1-yl)(methyl)carbamoyl)-3-phenylquinoxalin-2-yl)pentanoic acid]	2.1 to 20
CN(Cc1ccc(F)cc1)C(=O)c1ccc2nc(-c3ccc(F)cc3)c(CCCC(F)(F)C(=O)O)nc2c1 [compound 529, 2,2-difluoro-5-(7-((4-fluorobenzyl)(methyl)carbamoyl)-3-(4-fluorophenyl)quinoxalin-2-yl)pentanoic acid]	20.1 to 200
C[C@@H](CCc1nc2cc(C(=O)N[C@@H]3CCCc4ccccc43)ccc2nc1-c1ccc(F)cc1)CC(=O)O [compound 440, (S)-5-(3-(4-fluorophenyl)-7-(((R)-1,2,3,4-tetrahydronaphthalen-1-yl)carbamoyl)quinoxalin-2-yl)-3-methylpentanoic acid]	0.1 to 2
O=C(O)CCCCc1nc2cc(C(=O)N[C@H]3CCOc4ccccc43)ccc2nc1-c1ccccc1 [compound 513, (S)-5-(7-(chroman-4-ylcarbamoyl)-3-phenylquinoxalin-2-yl)pentanoic acid]	0.1 to 2
O=C(O)CCCCc1nc2cc(C(=O)N3CC(n4cnnc4)C3)ccc2nc1-c1ccc(Cl)cc1 [compound 327, 5-(7-(3-(4H-1,2,4-triazol-4-yl)azetidine-l-carbonyl)-3-(4-chlorophenyl)quinoxalin-2-yl)pentanoic acid]	20.1 to 200

Second part, the molecule after the results:

Ki [nM]	SMILES
2.1 to 20	O=C(O)CCCCc1nc2cc(C(=O)N3CCN(Cc4ccccc4)CC3)ccc2nc1-c1ccc(Cl)cc1 [compound 555, 5-(7-(4-benzylpiperazine-1-carbonyl)-3-(4-chlorophenyl)quinoxalin-2-yl)pentanoic acid]
2.1 to 20	O=C(O)CCCCc1nc2cc(C(=O)N[C@H]3CCOc4ccc(F)cc43)ccc2nc1-c1ccc(Cl)cc1 [compound 534, (S)-5-(3-(4-chlorophenyl)-7-((6-fluorochroman-4-yl)carbamoyl)quinoxalin-2-yl)pentanoic acid]
2.1 to 20	O=C(O)CCCCc1nc2cc(C(=O)N3CCCCC3c3ccccc3)ccc2nc1-c1ccc(Cl)cc1 (stereo not drawn) [compound 645, 5-(3-(4-chlorophenyl)-7-(2-phenylpiperidine-1-carbonyl)quinoxalin-2-yl)pentanoic acid]
0.1 to 2	O=C(O)CCCCc1nc2cc(C(=O)N[C@@H]3COc4ccccc43)ccc2nc1-c1ccc(Cl)cc1 [compound 563, (S)-5-(3-(4-chlorophenyl)-7-((2,3-dihydrobenzofuran-3-yl)carbamoyl)quinoxalin-2-yl)pentanoic acid]
2.1 to 20	O=C(O)CCCCc1nc2cc(C(=O)N3CCN(c4ncccn4)CC3)ccc2nc1-c1ccc(Cl)cc1 [compound 552, 5-(3-(4-chlorophenyl)-7-(4-(pyrimidin-2-yl)piperazine-1-carbonyl)quinoxalin-2-yl)pentanoic acid]
2.1 to 20	O=C(O)CCCCc1nc2cc(C(=O)N[C@@H]3CC(=O)Nc4ccccc43)ccc2nc1-c1ccccc1 [compound 711, (R)-5-(7-((2-oxo-1,2,3,4-tetrahydroquinolin-4-yl)carbamoyl)-3-phenylquinoxalin-2-yl)pentanoic acid]
2.1 to 20	O=C(O)CCCCc1nc2cc(C(=O)N3CCN(C(=O)c4ccco4)CC3)ccc2nc1-c1ccc(Cl)cc1 [compound 592, 5-(3-(4-chlorophenyl)-7-(4-(furan-2-carbonyl)piperazine-1-carbonyl)quinoxalin-2-yl)pentanoic acid]
20.1 to 200	O=C(O)CCCCc1nc2cc(C(=O)N3CCO[C@H](c4ccc(C(F)(F)F)cc4)C3)ccc2nc1-c1ccc(Cl)cc1 [compound 616, (R)-5-(3-(4-chlorophenyl)-7-(2-(4-(trifluoromethyl)phenyl)morpholine-4-carbonyl)quinoxalin-2-yl)pentanoic acid]
2.1 to 20	O=C(O)CCCCc1nc2cc(C(=O)N[C@@H]3CCOc4cc(F)c(F)cc43)ccc2nc1-c1ccccc1 [compound 642, (R)-5-(7-((6,7-difluorochroman-4-yl)carbamoyl)-3-phenylquinoxalin-2-yl)pentanoic acid]
2.1 to 20	Cc1cnccc1N1CCN(C(=O)c2ccc3nc(-c4ccc(Cl)cc4)c(CCCCC(=O)O)nc3c2)CC1 [compound 683, 5-(3-(4-chlorophenyl)-7-(4-(3-methylpyridin-4-yl)piperazine-1-carbonyl)quinoxalin-2-yl)pentanoic acid]
20.1 to 200	O=C(O)Cc1cccc(CCCc2nc3cc(C(=O)NCc4ccc(Cl)cc4)ccc3nc2-c2ccc(Cl)cc2)c1 [compound 546, 2-(3-(3-(7-((4-chlorobenzyl)carbamoyl)-3-(4-chlorophenyl)quinoxalin-2-yl)propyl)phenyl) acetic acid]
20.1 to 200	COc1ccc2c(c1)CCC[C@H]2NC(=O)c1ccc2nc(-c3ccc(F)cc3)c(CCCC(F)(F)C(=O)O)nc2c1 [compound 589, (R)-2,2-difluoro-5-(3-(4-fluorophenyl)-7-((6-methoxy-1,2,3,4-tetrahydro-naphthalen-1-yl)carbamoyl)quinoxalin-2-yl)pentanoic acid]
0.1 to 2	Cc1cccc(C)c1N1CCN(C(=O)c2ccc3nc(-c4ccc(Cl)cc4)c(CCCCC(=O)O)nc3c2)CC1 [compound 628, 5-(3-(4-chlorophenyl)-7-(4-(2,6-dimethylphenyl)piperazine-1-carbonyl)quinoxalin-2-yl)pentanoic acid]
2.1 to 20	O=C(O)CCCCc1nc2cc(C(=O)NC3CCOc4c(F)cc(F)cc43)ccc2nc1-c1ccc(Cl)cc1 (stereo not drawn) [compound 694, 5-(3-(4-chlorophenyl)-7-((6,8-difluorochroman-4-yl)carbamoyl)quinoxalin-2-yl)pentanoic acid]
